Literature values as cited in patent publication US8968799B2, “Time delayed release mechanism for energizing composition and method of use” (Rise-N-Shine L.L.C., priority 2006, dated 2015).

Legend:
[1] = cold, fatigue, sleep deprivation
[2] = particularly as methylcobalamin; healthy men and women

For `N[C@@H](Cc1ccc(O)cc1)C(=O)O` [Tyrosine, 4-hydroxyphenylalanine], the “effect on cognitive performance and mood under acute stress” value [1] is given as “appears to prevent the substantial decline”.

In the case of `C/C1=C2/[N-][C@H]([C@H](CC(N)=O)[C@@]2(C)CCC(=O)NC[C@@H](C)OP(=O)([O-])O[C@H]2[C@@H](O)[C@@H](n3cnc4cc(C)c(C)cc43)O[C@@H]2CO)[C@]2(C)N=C(/C(C)=C3N=C(/C=C4N=C1[C@@H](CCC(N)=O)C\4(C)C)[C@@H](CCC(N)=O)[C@]\3(C)CC(N)=O)[C@@H](CCC(N)=O)[C@]2(C)CC(N)=O.[CH3-].[Co+3]` [vitamin B12, methylcobalamin], the “effect on sleep time, sleep quality and daytime alertness” value [2] is listed as “decrease sleep time yet improve sleep quality and daytime alertness”.
